Source: ChEMBL document CHEMBL1138487, “Tacripyrines, the first tacrine-dihydropyridine hybrids, as multitarget-directed ligands for the treatment of Alzheimer's disease” (J Med Chem, 2009)

Experiments:
Cholinesterase = Cholinesterase (Homo sapiens, UniProt P06276)
Description: Inhibition of human serum BChE by Ellman's method

Acetylcholinesterase [1] = biological target: T1, Acetylcholinesterase (Homo sapiens, UniProt P22303)
Description: Inhibition of human serum AChE by Ellman's method

Acetylcholinesterase [2] = biological target: Acetylcholinesterase (Electrophorus electricus, UniProt O42275)
Description: Inhibition of electric eel AChE by Rappaport method

in vitro = settings: pig, PAMPA
Description: Permeability across porcine brain lipid coated polyvinylidene fluoride membrane by PAMPA

[3] = Inhibition of amyloid beta (1-42) self-aggregation at 1:1 drug to amyloid beta (1 to 42) ratio after 24 hrs by thioflavin T fluorescence method; settings: concentration not given here
Acetylcholinesterase [4] = biological target: T1, Acetylcholinesterase; settings: 100 uM
Description: Inhibition of human AChE-induced amyloid beta (1-40) aggregation at 100 uM after 24 hrs by thioflavin T fluorescence method

Sequence of Acetylcholinesterase (Electrophorus electricus, UniProt O42275) (O42275 whole entry): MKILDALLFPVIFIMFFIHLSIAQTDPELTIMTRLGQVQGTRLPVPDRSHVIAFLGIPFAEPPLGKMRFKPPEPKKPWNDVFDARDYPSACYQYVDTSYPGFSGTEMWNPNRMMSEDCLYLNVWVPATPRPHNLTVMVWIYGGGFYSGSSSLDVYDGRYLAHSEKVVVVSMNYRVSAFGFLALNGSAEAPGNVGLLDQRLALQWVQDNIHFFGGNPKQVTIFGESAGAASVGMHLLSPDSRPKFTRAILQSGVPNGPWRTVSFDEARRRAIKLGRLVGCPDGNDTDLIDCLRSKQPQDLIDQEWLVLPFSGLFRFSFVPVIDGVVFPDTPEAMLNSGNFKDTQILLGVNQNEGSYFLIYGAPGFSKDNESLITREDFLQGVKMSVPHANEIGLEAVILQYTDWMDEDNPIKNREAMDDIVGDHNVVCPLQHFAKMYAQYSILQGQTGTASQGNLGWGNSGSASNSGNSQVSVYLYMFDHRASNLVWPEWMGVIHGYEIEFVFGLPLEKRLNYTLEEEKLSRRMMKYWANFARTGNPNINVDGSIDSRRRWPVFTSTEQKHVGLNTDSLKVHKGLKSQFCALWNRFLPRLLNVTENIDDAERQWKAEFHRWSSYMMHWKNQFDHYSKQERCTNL
Sequence of Cholinesterase (P06276 whole entry): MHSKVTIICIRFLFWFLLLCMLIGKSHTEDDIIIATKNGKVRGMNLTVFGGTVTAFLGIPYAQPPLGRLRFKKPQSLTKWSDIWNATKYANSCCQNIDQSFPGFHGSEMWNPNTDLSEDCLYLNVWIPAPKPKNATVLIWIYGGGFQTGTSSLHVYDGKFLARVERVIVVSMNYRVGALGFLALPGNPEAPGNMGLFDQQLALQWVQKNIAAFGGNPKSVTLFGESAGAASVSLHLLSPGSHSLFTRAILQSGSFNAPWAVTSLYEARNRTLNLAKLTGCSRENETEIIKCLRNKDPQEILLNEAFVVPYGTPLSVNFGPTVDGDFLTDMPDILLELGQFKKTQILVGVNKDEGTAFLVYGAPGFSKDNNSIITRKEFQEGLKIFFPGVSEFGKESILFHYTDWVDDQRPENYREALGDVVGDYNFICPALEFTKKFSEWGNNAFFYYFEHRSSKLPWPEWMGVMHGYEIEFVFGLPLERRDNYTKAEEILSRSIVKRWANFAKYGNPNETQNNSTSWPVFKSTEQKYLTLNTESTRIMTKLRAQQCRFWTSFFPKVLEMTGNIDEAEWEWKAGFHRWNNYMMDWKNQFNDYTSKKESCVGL
T1 sequence (P22303 whole entry): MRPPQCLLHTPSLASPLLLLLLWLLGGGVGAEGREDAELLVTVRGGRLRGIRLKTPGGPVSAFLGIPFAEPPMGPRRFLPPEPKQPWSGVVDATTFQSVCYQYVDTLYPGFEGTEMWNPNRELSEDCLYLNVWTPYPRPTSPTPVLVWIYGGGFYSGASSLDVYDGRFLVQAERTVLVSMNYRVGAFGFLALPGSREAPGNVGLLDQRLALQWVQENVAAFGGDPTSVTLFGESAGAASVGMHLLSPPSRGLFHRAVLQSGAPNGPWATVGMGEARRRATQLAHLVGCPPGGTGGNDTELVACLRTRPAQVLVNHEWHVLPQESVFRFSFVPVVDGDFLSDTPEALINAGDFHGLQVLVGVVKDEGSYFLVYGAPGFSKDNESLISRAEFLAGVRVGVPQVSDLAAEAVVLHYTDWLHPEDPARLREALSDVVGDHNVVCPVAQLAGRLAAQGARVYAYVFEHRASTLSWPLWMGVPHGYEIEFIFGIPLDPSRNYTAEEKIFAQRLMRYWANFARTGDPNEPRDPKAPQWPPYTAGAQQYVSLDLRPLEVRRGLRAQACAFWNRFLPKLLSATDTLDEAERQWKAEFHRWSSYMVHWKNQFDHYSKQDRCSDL

CCOC(=O)C1=C(C)Nc2nc3c(c(N)c2C1c1cccnc1)CCCC3 (stereo unspecified)
IC50 (Cholinesterase): > 100000 nM | IC50 (Acetylcholinesterase [1]): 158 nM | IC50 (Acetylcholinesterase [2]): 47 nM

CN(C)CCCN1c2ccccc2Sc2ccccc21 [PROMAZINE]
Papp (in vitro): 7.7 ×10⁻⁶ cm/s

CN1C(C(=O)Nc2ccccn2)=C(O)c2ccccc2S1(=O)=O [PIROXICAM]
Papp (in vitro): 0.4 ×10⁻⁶ cm/s

CCOC(=O)C1=C(C)Nc2nc3c(c(N)c2C1c1ccc(OC)cc1)CCCC3 (stereo unspecified)
inhibition [3]: 34.9% | inhibition (Acetylcholinesterase [4]): 30.7%

CCOC(=O)C1=C(C)Nc2nc3c(c(N)c2C1c1ccc(-c2ccccc2)cc1)CCCC3 (stereo unspecified)
IC50 (Cholinesterase): > 100000 nM | IC50 (Acetylcholinesterase [1]): 71 nM | IC50 (Acetylcholinesterase [2]): 90 nM

CCn1cc(C(=O)O)c(=O)c2cc(F)c(N3CCNC(C)C3)c(F)c21 (stereo unspecified) [LOMEFLOXACIN]
Papp (in vitro): 0.5 ×10⁻⁶ cm/s

C[C@]12CCC(=O)C=C1CC[C@@H]1[C@@H]2[C@@H](O)C[C@]2(C=O)[C@@H](C(=O)CO)CC[C@@H]12 [ALDOSTERONE]
Papp (in vitro): 0.6 ×10⁻⁶ cm/s

CCOC(=O)C1=C(C)Nc2nc3c(c(N)c2C1c1ccncc1)CCCC3 (stereo unspecified)
IC50 (Cholinesterase): > 100000 nM | IC50 (Acetylcholinesterase [1]): 223 nM | IC50 (Acetylcholinesterase [2]): 220 nM

CCn1cc(C(=O)O)c(=O)c2cc(F)c(N3CCNCC3)nc21 [ENOXACIN]
Papp (in vitro): 0.6 ×10⁻⁶ cm/s

CCOC(=O)C1=C(C)Nc2nc3c(c(N)c2C1c1ccc(OC)c(OC)c1)CCCC3 (stereo unspecified)
IC50 (Cholinesterase): > 100000 nM | IC50 (Acetylcholinesterase [1]): 45 nM | IC50 (Acetylcholinesterase [2]): 103 nM

COc1ccc(CCN2CCC(Nc3nc4ccccc4n3Cc3ccc(F)cc3)CC2)cc1 [ASTEMIZOLE]
Papp (in vitro): 6.1 ×10⁻⁶ cm/s

CC(=O)[C@H]1CC[C@H]2[C@@H]3CCC4=CC(=O)CC[C@]4(C)[C@H]3CC[C@]12C [PROGESTERONE]
Papp (in vitro): 6.6 ×10⁻⁶ cm/s
